Experimental data reported in article PMC12845078 (Pharmaceuticals, 2025).

Tests used:
[1] = Whole blood/plasma distribution ratio, mouse; type: in vitro ADME
Description: (§4) After incubation for 20 min, a portion of the whole blood was centrifuged at 2500× g for 10 min at 4 °C to separate plasma; another portion of the whole blood was subjected to three cycles of freeze–thawing and ultrasonicated for 10 min to disrupt cells. Equal volumes of plasma and whole blood samples were added to the whole blood and plasma specimens, respectively, followed by protein precipitation with acetonitrile containing an internal standard (IS). […] The RED inserts were placed in the matching incubation plate: 200 µL of drug-containing matrix were added to the sample chamber, and 400 µL of PBS buffer (pH: 7.4) were added to the buffer chamber. After incubation in a constant-temperature shaking incubator for 6 h (37 °C), samples from the sample chamber and buffer chamber were diluted 1:1 with PBS or matrix, respectively, and proteins were precipitated with acetonitrile containing IS.

[2] = Protein binding with hepatic microsomes and plasma proteins across species (summary); type: in vitro ADME; conditions: beagle (dog), rat, human, liver microsomes and plasma, pH 7.4, both hepatic microsomes and plasma proteins
Description: as §4

[3] = target: T1, CYP enzymes involved in melatonin 6-hydroxylation (Canis lupus familiaris, UniProt P56592); experiment: Competitive inhibition of CBD on MT 6-hydroxylation, beagle liver microsomes; type: in vitro ADME; conditions: dog, probe melatonin (MT) 1 μM, 6-hydroxylation to 6-HMT
T1 sequence (P56592 2-512): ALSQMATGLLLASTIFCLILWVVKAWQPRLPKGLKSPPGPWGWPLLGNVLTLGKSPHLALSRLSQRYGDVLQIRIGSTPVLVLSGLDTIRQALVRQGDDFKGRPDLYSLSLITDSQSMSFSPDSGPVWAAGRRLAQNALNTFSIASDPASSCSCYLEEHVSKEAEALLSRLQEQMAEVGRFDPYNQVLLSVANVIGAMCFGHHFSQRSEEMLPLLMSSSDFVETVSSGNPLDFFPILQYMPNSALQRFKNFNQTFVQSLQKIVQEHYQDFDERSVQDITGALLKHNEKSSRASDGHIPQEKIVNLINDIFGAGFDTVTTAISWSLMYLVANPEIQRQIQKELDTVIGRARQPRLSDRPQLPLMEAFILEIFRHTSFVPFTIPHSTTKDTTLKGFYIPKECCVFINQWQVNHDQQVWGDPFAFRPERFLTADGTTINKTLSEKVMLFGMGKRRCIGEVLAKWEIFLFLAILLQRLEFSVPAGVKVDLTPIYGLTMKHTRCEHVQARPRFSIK
Description: (§1) The final incubation system contained 100 mM PBS, 5 mM MgCl2, 0.5 mg/mL liver microsomal protein, and 1 mM NADPH. […] The final concentration of MT was 1 μM.

[4] = target: T2, CYP enzymes involved in melatonin 6-hydroxylation (Homo sapiens, UniProt P05177); experiment: Competitive inhibition of CBD on MT 6-hydroxylation, human liver microsomes; type: in vitro ADME; conditions: human, liver microsomes, probe melatonin (MT) 1 μM, 6-hydroxylation to 6-HMT
T2 construct: tissue XenoTech; host or cells: human liver microsomes
T2 sequence (P05177 1-516): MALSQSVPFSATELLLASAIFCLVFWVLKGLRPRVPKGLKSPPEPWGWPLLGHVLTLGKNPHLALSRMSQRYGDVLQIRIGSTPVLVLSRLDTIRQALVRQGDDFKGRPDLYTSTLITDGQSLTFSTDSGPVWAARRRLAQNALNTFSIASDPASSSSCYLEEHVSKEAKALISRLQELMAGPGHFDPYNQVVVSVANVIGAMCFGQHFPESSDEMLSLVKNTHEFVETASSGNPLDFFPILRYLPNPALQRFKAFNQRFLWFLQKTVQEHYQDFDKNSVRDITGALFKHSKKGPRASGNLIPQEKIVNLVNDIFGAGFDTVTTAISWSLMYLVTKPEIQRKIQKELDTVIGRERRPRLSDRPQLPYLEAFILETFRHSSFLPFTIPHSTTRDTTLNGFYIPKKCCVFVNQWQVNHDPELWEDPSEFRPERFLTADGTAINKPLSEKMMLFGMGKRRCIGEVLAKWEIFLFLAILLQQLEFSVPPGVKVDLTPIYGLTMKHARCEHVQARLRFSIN
Description: as §1

[5] = target: T3, CYP enzymes involved in melatonin 6-hydroxylation, human liver microsomes (Homo sapiens, UniProt P05177); experiment: as above; type: in vitro ADME
T3 construct: tissue XenoTech; host or cells: human liver microsomes
T3 sequence (P05177 1-516): T2 sequence (P05177 1-516)
Description: as §1

[6] = target: T4, CYP enzymes mediating MT 6-hydroxylation in human liver microsomes (CYP1A2) (Homo sapiens, UniProt P05177); experiment: Irreversible (mechanism-based) inhibition of CBD on MT 6-hydroxylation, human liver microsomes; type: in vitro ADME
T4 construct: tissue XenoTech; host or cells: human liver microsomes
T4 sequence (P05177 1-516): T2 sequence (P05177 1-516)
Description: (§2) The reaction was initiated by adding the NADPH working solution that had also been pre-incubated for 5 min. […] After pre-incubation for different durations (0, 5, 10, 20, 30 min), 10 μL of the incubation mixture were transferred to a secondary incubation system containing 148 μL PBS and 2 μL MT working solution (final MT concentration: 200 μM). An additional 40 μL of NADPH were added, and the mixture was incubated for 30 min.
(§3) Irreversible inhibition assays: A semi-logarithmic curve was generated by plotting residual enzyme activity against pre-incubation time. The observed CYP enzyme inactivation rate (Kobs) was derived from the initial slope of the linear regression. The Lineweaver-Burk double reciprocal curve (1/Kobs vs. 1/I) described by Formula (8) was used to determine KI and Kinact: Kinact was estimated from the reciprocal of the Y-intercept, and KI was obtained from the negative reciprocal of the X-intercept.(8) 1/k=KI/Kinact1/I+1/Kinact

[7] = target: T5, CYP1A2 (CYP enzymes mediating MT 6-hydroxylation) (Homo sapiens, UniProt P05177); experiment: as above; type: in vitro ADME; conditions: probe melatonin (MT) 200 µM, 6-hydroxylation to 6-HMT
T5 construct: tissue XenoTech; host or cells: human liver microsomes
T5 sequence (P05177 1-516): T2 sequence (P05177 1-516)
Description: as §2, §3

[8] = system: CYP enzymes mediating MT 6-hydroxylation in rat liver microsomes; experiment: Irreversible (mechanism-based) inhibition of CBD on MT 6-hydroxylation, rat liver microsomes; type: in vitro ADME
Description: as §2, §3

[9] = system: CYP enzymes of MT 6-hydroxylation; experiment: in vitro; conditions: rat, liver microsomes, probe melatonin (MT) 2 μM, 6-hydroxylation to 6-HMT, IC50 Ratio (IC50 shift), RLM, 30 min pre-incubation with/without NADPH
Description: (§5) The reaction was initiated by adding pre-warmed NADPH (control groups lacked NADPH). The final incubation mixture contained 100 mM PBS, 5 mM MgCl2, liver microsomes (0.5 mg/mL), 1 mM NADPH, and 0.2% BSA. […] Concentrations in beagle dog microsomal incubations were 0, 0.125, 0.25, 0.5, 1, 2, 4, 8, 16, and 32 μM. […] All samples were prepared in triplicate. The concentration of 6-HMT was quantified using LC-MS/MS.
(§6) Competitive inhibition and time-dependent inhibition assays: The production of 6-HMT without inhibitors was set as 100%.

[10] = system: CYP enzymes of MT 6-hydroxylation; experiment: in vitro; conditions: human, liver microsomes, probe melatonin (MT) 2 μM, 6-hydroxylation to 6-HMT, IC50 Ratio (IC50 shift), HLM, 30 min pre-incubation with/without NADPH
Description: as §5, §6

[11] = system: liver microsomes from different species; experiment: Effect of MT on in vitro metabolism of CBD in liver microsomes; type: in vitro ADME, human, rat, beagle; conditions: CBD 1 μM, MT up to 32 μM
Description: The reaction was initiated by adding pre-incubated NADPH. The system contained liver microsomes at 0.5 mg/mL and NADPH at 1 mM (both diluted in PBS containing MgCl2). […] All samples were prepared in triplicate. The content of CBD was determined by LC-MS/MS.

[12] = system: CYP1A2-mediated metabolism of MT; experiment: Static DDI model prediction of CBD's impact on MT exposure, human; conditions: input of static DDI model
From the text: (AUC when co-administered with the inhibitor) to AUC[contr] (AUC without the inhibitor).

[13] = read-out: Km of MT 6-hydroxylation; HLM
in vitro [14] = conditions: rat, liver microsomes
in vitro [15] = conditions: human, liver microsomes, Km of MT 6-hydroxylation, HLM

Row | SMILES | Rb/p (Ratio) [1] | fraction unbound at 6 h [2] | IC50 at 30 min ([3]; IC50, beagle, as listed in Table 6 for static DDI model) [nM] | IC50 at 30 min ([3]; IC50, inhibition of MT 6-hydroxylation, DLM, MT 1 μM) [nM] | IC50 at 30 min [4] [µM] | IC50 [5] [µM] | Ki [6] [µM] | Ki ([7]; human, liver microsomes) [nM] | kinact ([7]; human liver microsomes) [s⁻¹] | irreversible inhibitory effect [8] | IC50 shift at 30 min [9] | IC50 shift at 30 min [10] | competitive inhibition of CBD metabolism by MT [11] | fm(CYP1A2), proportion of MT metabolized by CYP1A2 [12] | Km [13] [µM] | Km at 15 min (in vitro [14]) [µM] | Km at 15 min (in vitro [15]) [µM]
1 | C=C(C)[C@@H]1CCC(C)=C[C@H]1c1c(O)cc(CCCCC)cc1O [CBD, Cannabidiol] | 0.82 (0.19) | < 0.01 | 650 | 3420 ± 1300 | 3.39 | 16.5 ± 4.23 | 25.6 | 18.7 | 0.00105 | no irreversible inhibitory effect was observed | 1.81 | 2.55 | – | – | – | – | –
2 | COc1ccc2[nH]cc(CCNC(C)=O)c2c1 [MT, Melatonin] | – | – | – | – | – | – | – | – | – | – | – | – | does not exert competitive inhibition on CBD | 0.92 | 165 | 147 | 165
